Literature values in patent publication US7138430B2, “Nitrosated and nitrosylated nebivolol and its metabolites, compositions and methods of use” (NitroMed, Inc., priority 2001, dated 2006).

SMILES: O=[N+]([O-])O[C@H]1CO[C@H]2[C@@H]1OC[C@H]2O[N+](=O)[O-] [isosorbide dinitrate, 1,4,3,6-dianhydro-D-glucitol-2,5-dinitrate]
- solubility in organic solvents (organic solvents such as ethanol, ether and chloroform): freely soluble
- solubility in water (water): sparingly soluble
